# Experimental data from the supplement of paper PMC11451515.
# Tested on: NOMO1
# Assay: cell viability relative to DMSO control; higher = less cytotoxic
# Details: 48 h
# Summary of the method: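 NOMO1, SEM and P12-Ichikawa leukemia cells spent at least four passages adapting to each medium before use. They were seeded at 500 cells/well (NOMO1, SEM) or 1000 cells/well (P12-Ichikawa) in 5 μl in 1536-well plates and pin-dosed with library compounds in DMSO at 11 threefold steps from 47 μM down to 0.79 nM. After 48 h at 37°C, CellTiter-Glo One luminescence was read. Viability is reported as a percentage of the DMSO wells on each plate, with cell-free wells as background.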
# [1] = HPLM + 10% dialyzed FBS, 0.000781 µM
# [2] = HPLM + 10% dialyzed FBS, 0.00234 µM
# [3] = HPLM + 10% dialyzed FBS, 0.00702 µM
# [4] = HPLM + 10% dialyzed FBS, 0.0211 µM
# [5] = HPLM + 10% dialyzed FBS, 0.0632 µM
# [6] = HPLM + 10% dialyzed FBS, 0.19 µM
# [7] = HPLM + 10% dialyzed FBS, 0.569 µM
# [8] = HPLM + 10% dialyzed FBS, 1.71 µM
# [9] = HPLM + 10% dialyzed FBS, 5.12 µM
# [10] = HPLM + 10% dialyzed FBS, 15.4 µM
# [11] = HPLM + 10% dialyzed FBS, 46.1 µM
# [12] = RPMI 5 mM glucose + 10% FBS, 0.000781 µM
# [13] = RPMI 5 mM glucose + 10% FBS, 0.00234 µM
# [14] = RPMI 5 mM glucose + 10% FBS, 0.00702 µM
# [15] = RPMI 5 mM glucose + 10% FBS, 0.0211 µM
# [16] = RPMI 5 mM glucose + 10% FBS, 0.0632 µM
# [17] = RPMI 5 mM glucose + 10% FBS, 0.19 µM
# [18] = RPMI 5 mM glucose + 10% FBS, 0.569 µM
# [19] = RPMI 5 mM glucose + 10% FBS, 1.71 µM
# [20] = RPMI 5 mM glucose + 10% FBS, 5.12 µM
# [21] = RPMI 5 mM glucose + 10% FBS, 15.4 µM
# [22] = RPMI 5 mM glucose + 10% FBS, 46.1 µM
# [23] = RPMI 5 mM glucose + 10% dialyzed FBS, 0.000781 µM
# [24] = RPMI 5 mM glucose + 10% dialyzed FBS, 0.00234 µM
# [25] = RPMI 5 mM glucose + 10% dialyzed FBS, 0.00702 µM
# [26] = RPMI 5 mM glucose + 10% dialyzed FBS, 0.0211 µM
# [27] = RPMI 5 mM glucose + 10% dialyzed FBS, 0.0632 µM
# [28] = RPMI 5 mM glucose + 10% dialyzed FBS, 0.19 µM
# [29] = RPMI 5 mM glucose + 10% dialyzed FBS, 0.569 µM
# [30] = RPMI 5 mM glucose + 10% dialyzed FBS, 1.71 µM
# [31] = RPMI 5 mM glucose + 10% dialyzed FBS, 5.12 µM
# [32] = RPMI 5 mM glucose + 10% dialyzed FBS, 15.4 µM
# [33] = RPMI 5 mM glucose + 10% dialyzed FBS, 46.1 µM
Structure (SMILES),cell viability [1] [%],cell viability [2] [%],cell viability [3] [%],cell viability [4] [%],cell viability [5] [%],cell viability [6] [%],cell viability [7] [%],cell viability [8] [%],cell viability [9] [%],cell viability [10] [%],cell viability [11] [%],cell viability [12] [%],cell viability [13] [%],cell viability [14] [%],cell viability [15] [%],cell viability [16] [%],cell viability [17] [%],cell viability [18] [%],cell viability [19] [%],cell viability [20] [%],cell viability [21] [%],cell viability [22] [%],cell viability [23] [%],cell viability [24] [%],cell viability [25] [%],cell viability [26] [%],cell viability [27] [%],cell viability [28] [%],cell viability [29] [%],cell viability [30] [%],cell viability [31] [%],cell viability [32] [%],cell viability [33] [%]
CN1CCN(c2c(F)cc3c(=O)c(C(=O)O)cn(CCF)c3c2F)CC1,97.8,107,114,119,101,116,106,124,105,125,96.9,101,103,108,109,122,106,104,116,120,114,119,93.3,93.2,97.6,109,106,108,115,111,118,102,104
CCOC(=O)[C@@]1(CCCCCCOc2ccc(Cl)cc2)CO1,,,,,,,,,,,,120,118,109,107,108,115,106,106,96.5,86.7,48.1,117,117,114,112,111,111,113,108,107,96,56.8
O=C(CCCCCCC(=O)Nc1ccc([C@H]2O[C@@H](CSc3nc(-c4ccccc4)c(-c4ccccc4)o3)C[C@@H](c3ccc(CO)cc3)O2)cc1)NO,,,,,,,,,,,,120,135,117,124,117,131,127,111,108,12.5,5.57,,,,,,,,,,,
C[C@]12Cc3cn[nH]c3C[C@@H]1CC[C@@H]1[C@@H]2CC[C@@]2(C)[C@H]1CC[C@]2(C)O,,,,,,,,,,,,97.1,102,100,105,106,103,109,112,100,92.4,90.7,102,119,122,120,114,105,103,92.8,95.3,109,96.3
O=C(CS(=O)Cc1ccco1)NC/C=C\COc1cc(CN2CCCCC2)ccn1 (stereo not given),85,105,101,102,93.3,113,93.8,98.9,89,94.1,92.9,89.7,87.5,97.2,95.7,87.1,98.2,87.8,89.3,94.8,93.3,92.8,90,103,95,108,105,103,108,97.4,90.9,105,99.4
COC(=O)Nc1nc2cc(C(=O)c3ccc(F)cc3)ccc2[nH]1,103,113,102,104,102,103,84.7,54.9,32.9,52.2,40.3,107,98.1,91.4,95.3,101,97.5,98.6,83.8,34.8,83.8,83.9,99.3,103,94.1,107,89.3,93,90.9,65.3,31.9,74.1,72.9
Cc1cc(OCCC[S+](C)(=O)[O-])cc(C)c1-c1cccc(COc2ccc3c(c2)OC[C@H]3CC(=O)O)c1,93.7,112,98.7,91.3,108,97.8,103,89.9,106,92.8,67.1,96.9,95,99.2,102,92.4,99.2,107,100,98,90.6,57.3,99.2,96.7,95.9,98.4,96.1,92.6,93.7,86.4,85.3,89.3,47.1
Cc1nn(C)c(COc2ccc(N3CCN([S+](=O)([O-])N(C)C)CC3)cc2)c1-c1cccc2c(CCCOc3cccc4ccccc34)c(C(=O)O)n(CCN3CCOCC3)c12,96.9,107,121,122,124,108,137,101,25.9,36.8,32.1,100,110,105,110,112,105,118,111,25.2,108,22.8,90.6,112,110,116,122,111,117,107,109,119,91.8
